From publication PMC11747885, “Potent inhibitors of the human RNA ligase Rlig1 highlights its role in RNA integrity maintenance under oxidative cellular stress” (Chemical Science, 2025)
Where “and” joins values, the source holds several entries; their conditions need not be identical. Equal entries are not always repeated. Marks after values point to notes of the source that are not given here.

Tests used:
HEK293 cells [1] = test: Cell viability assay of HEK293 cells treated with inhibitors (CellTiter-Glo)
HEK293 cells [2] = test: Light-microscopy of inhibitor- and menadione-treated HEK293 cells; assay type: cell-based, human; details: 30 µM compound 24 h, then menadione 5 h
HEK293 cells [3] = test: Cell viability assay of HEK293 cells treated with inhibitors and menadione; assay type: cell-based, human; details: for Mean Diff, (Predicted (LS) mean diff,) w/o menadione - w menadione: 2 way ANOVA, Šídák's multiple comparisons test, normalised viability
[4] = as above; assay type: cell-based, human; details: human, HEK293 cells, w/o Menadione; for viability at 7.5 µM: 7.5 µM compound; for viability at 15 µM: 15 µM compound; for viability at 30 µM: 30 µM compound; for viability at 60 µM: 60 µM compound
[5] = 20240508 plate 012, DMSO Ko no Mendione = 100
[6] = 20240508 plate 013, DMSO Ko no Mendione = 100
[7] = 20240515 plate 014, DMSO Ko no Mendione = 100
[8] = 20240515 plate 015, DMSO Ko no Mendione = 100

Q: What does the source list for `Nc1nccc(Nc2ccc(NC(=O)c3ccc(Nc4ncnc5ccccc45)cc3)cc2)n1` [Compound 47]?
A: cytotoxicity (in words) (HEK293 cells [1]; HEK293, 24 h, up to 30 μM): no detectable cytotoxicity; IC50 (Figure 3D: EC50 values for plot; log(inhibitor) vs. response -- Variable slope (four parameters)) (HEK293 cells [1]; HEK293 cell viability, fit per plate (3 plates, 4 technical replicates each), highest tested concentration 30 µM): 163.557 µM and 35.63 µM and 278.968 µM; LogIC50 (log(inhibitor) vs. response -- Variable slope (four parameters)) (HEK293 cells [1]; HEK293 cell viability, fit per plate (3 plates, 4 technical replicates each), log of [µM]): 2.214 and 1.552 and 2.446; EC50 (HEK293 cells [1]; Homo sapiens, HEK293, 24 h): > 30 µM; cell morphology (HEK293 cells [2]): poor adherence and cell shrinkage; Mean Diff, (Predicted (LS) mean diff,) w/o menadione - w menadione (HEK293 cells [3]; 7.5 µM compound): 27.05; Cell viability raw signal, technical replicates (HEK293 cells [3]; 7.5 µM compound, w Menadione (40µM), 20240508 plate 012): 13447 and 15406 and 23888 and 24895; Cell viability raw signal, technical replicates (HEK293 cells [3]; 7.5 µM compound, w Menadione (40µM), 20240508 plate 013): 16840 and 14275 and 23542 and 21544; Cell viability raw signal, technical replicates (HEK293 cells [3]; 7.5 µM compound, w Menadione (40µM), 20240515 plate 014): 21755 and 24259 and 24363 and 21863; Cell viability raw signal, technical replicates (HEK293 cells [3]; 7.5 µM compound, w Menadione (40µM), 20240515 plate 015): 23813 and 26835 and 27301 and 27718; Cell viability raw signal, technical replicates (HEK293 cells [3]; 7.5 µM compound, w/o Menadione, 20240508 plate 012): 495890 and 394280 and 400970 and 404470; Cell viability raw signal, technical replicates (HEK293 cells [3]; 7.5 µM compound, w/o Menadione, 20240508 plate 013): 392490 and 381070 and 376820 and 393330; Cell viability raw signal, technical replicates (HEK293 cells [3]; 7.5 µM compound, w/o Menadione, 20240515 plate 014): 358610 and 355380 and 351680 and 351260; Cell viability raw signal, technical replicates (HEK293 cells [3]; 7.5 µM compound, w/o Menadione, 20240515 plate 015): 363930 and 358300 and 404440 and 357100; Mean Diff, (Predicted (LS) mean diff,) w/o menadione - w menadione (HEK293 cells [3]; 15 µM compound): 26.73; Cell viability raw signal, technical replicates (HEK293 cells [3]; 15 µM compound, w Menadione (40µM), 20240508 plate 012): 20771 and 17972 and 20655 and 18810; Cell viability raw signal, technical replicates (HEK293 cells [3]; 15 µM compound, w Menadione (40µM), 20240508 plate 013): 17686 and 14464 and 20096 and 19671; Cell viability raw signal, technical replicates (HEK293 cells [3]; 15 µM compound, w Menadione (40µM), 20240515 plate 014): 22870 and 22437 and 28706 and 27891; Cell viability raw signal, technical replicates (HEK293 cells [3]; 15 µM compound, w Menadione (40µM), 20240515 plate 015): 23978 and 24873 and 26687 and 23492; Mean Diff, (Predicted (LS) mean diff,) w/o menadione - w menadione (HEK293 cells [3]; 30 µM compound): 26.18; Cell viability raw signal, technical replicates (HEK293 cells [3]; 30 µM compound, w Menadione (40µM), 20240508 plate 012): 17555 and 22131 and 18922 and 17419; Cell viability raw signal, technical replicates (HEK293 cells [3]; 30 µM compound, w Menadione (40µM), 20240508 plate 013): 13658 and 13606 and 15514 and 16155; Cell viability raw signal, technical replicates (HEK293 cells [3]; 30 µM compound, w Menadione (40µM), 20240515 plate 014): 15897 and 16266 and 21346 and 20584; Cell viability raw signal, technical replicates (HEK293 cells [3]; 30 µM compound, w Menadione (40µM), 20240515 plate 015): 19537 and 20556 and 18511 and 24331; Cell viability raw signal, technical replicates (HEK293 cells [3]; 30 µM compound, w/o Menadione, 20240508 plate 012): 338540 and 348450 and 357680 and 361520; Mean Diff, (Predicted (LS) mean diff,) w/o menadione - w menadione (HEK293 cells [3]; 60 µM compound): 29.66; Cell viability raw signal, technical replicates (HEK293 cells [3]; 60 µM compound, w Menadione (40µM), 20240508 plate 012): 68212* and 77972* and 10202 and 14953; Cell viability raw signal, technical replicates (HEK293 cells [3]; 60 µM compound, w Menadione (40µM), 20240508 plate 013): 97500* and 94661* and 7245 and 13149; Cell viability raw signal, technical replicates (HEK293 cells [3]; 60 µM compound, w Menadione (40µM), 20240515 plate 014): 23954 and 23288 and 10147 and 14983; Cell viability raw signal, technical replicates (HEK293 cells [3]; 60 µM compound, w Menadione (40µM), 20240515 plate 015): 24869 and 20588 and 9258 and 15604; Cell viability raw signal, technical replicates (HEK293 cells [3]; 60 µM compound, w/o Menadione, 20240508 plate 012): 309000 and 323530 and 287920 and 324080; Cell viability raw signal, technical replicates (HEK293 cells [3]; 60 µM compound, w/o Menadione, 20240508 plate 013): 294060 and 325150 and 301550 and 314910; Cell viability raw signal, technical replicates (HEK293 cells [3]; 60 µM compound, w/o Menadione, 20240515 plate 014): 295270 and 285610 and 291450 and 291110; Cell viability raw signal, technical replicates (HEK293 cells [3]; 60 µM compound, w/o Menadione, 20240515 plate 015): 292640 and 290230 and 291370 and 285220; cell viability under oxidative stress (in words) (HEK293 cells [3]; inhibitor 24 h, then 40 μM menadione 5 h): significantly reduced viability only when the cells were stressed; viability at 7.5 µM [4, 5]: 101%; viability at 7.5 µM [4, 6]: 97.7%; viability at 7.5 µM [4, 7]: 86.8%; viability at 7.5 µM [4, 8]: 90.7%; viability at 15 µM [4, 5]: 99.1%; viability at 15 µM [4, 6]: 99.5%; viability at 15 µM [4, 7]: 88.1%; viability at 15 µM [4, 8]: 86.8%; viability at 30 µM [4, 5]: 83.9%; viability at 30 µM [4, 6]: 85.9%; viability at 30 µM [4, 7]: 80.3%; viability at 30 µM [4, 8]: 77.7%; viability at 60 µM [4, 5]: 74.2%; viability at 60 µM [4, 6]: 78.2%; viability at 60 µM [4, 7]: 71.3%; viability at 60 µM [4, 8]: 70.9%
